US20230355506A1, “ACTIVE INGREDIENT COMPLEX FOR COSMETIC PREPARATIONS” (LA PRAIRIE GROUP AG, priority 2022, published 2023)

The compounds below were run on collagen I A2 (assay: ELISA for collagen1A2 in ECM isolated from cultured hypodermis explants after 10 days of treatment). Conditions: additions (extract solvents/additives) alone.
Type: cell-based, human
Description: The hypodermis was prepared and weighed out into approximately 200 mg pieces. The tissue was cultured in a submersed state in defined and serum-free hypodermis tissue culture medium (CB-EM-HYP) in an actively humidified biomedical incubator (Memmert, Germany) at 37° C. and 5% CO2.
Overnight cultivation was followed by substitution with fresh tissue culture medium. Explants were cultivated either in the presence or absence of test samples.
Over a period of 10 days, the medium was replaced daily with freshly supplemented test samples or with normal media without test samples.
After 10 days of treatment, a portion of the tissue samples was processed for the extraction of ECM proteins.
Isolated ECM was subjected to a protein estimation in accordance with the BCA method (Bicinchoninic Acid) (Sigma Aldrich), and ELISAs (Biotechne) corresponding to the antigen collagen1A2 were performed according to the manufacturer's protocol using the same amounts of proteins as were estimated from the BCA assay. A sensitive filter-based microplate reader (Accuris, USA) was used to perform readout.
The following test samples were investigated: • A. Glycolic caviar extract containing approx. 6% fish egg material, 10% water and propylene glycol ad 100. […] Lipophilic caviar extract containing 40% fish egg material, 0.02% tocopherol, 1% by weight phenoxyethanol and triglycerides ad 100. This extract was obtained from an extraction with triglycerides and phenoxyethanol of a homogenizate from fish eggs of Acipenser baerii. […] The proportion of sodium mannose 6-phosphate is 2.5% by weight. The proportion of mannose is 2.5% by weight.

Row | SMILES | Increase in the expression of collagen I by the additions alone
1 | OCC(O)CO [glycerol] | do not show any increase
2 | CC(O)CO (stereo not shown) [propylene glycol] | do not show any increase
3 | O=C(O)[C@@H](O)[C@H](O)[C@H](O)[C@@H](O)C(=O)O [galactaric acid] | do not show any increase
4 | O [water] | do not show any increase
